ChEMBL document CHEMBL4765417, “Targeting Protein Folding: A Novel Approach for the Treatment of Pathogenic Bacteria” (J Med Chem, 2020)

Tests used:
[1] = target: Outer membrane protein MIP (Legionella pneumophila, UniProt Q70YI1); test: Inhibition of Legionella pneumophila Mip assessed as reduction in PPIase activity using succinyl-Ala-Leu-Pro-Phe-4-nitroanilide as substrate incubated for 4 mins by absorbance method
[2] = system: Chlamydia trachomatis; test: Antibacterial activity against Chlamydia trachomatis infected in human HeLa cells at 5 uM administered at 8 to 24 hrs post infection by phalloidin dye based Alexa Fluor immunofluorescence microscopy; assay type: functional; settings: time 8-24 hrs
[3] = system: Chlamydia trachomatis; test: Antibacterial activity against Chlamydia trachomatis infected in human HeLa cells at 5 uM assessed as reduction in progeny infection administered at 8 to 24 hrs post infection by Western blot analysis; assay type: functional; set-up: scale not given: the % may be the effect or the level left; settings: time 8-24 hrs
[4] = Inhibition of Neisseria gonorrhoeae N2009 Mip using N-succinyl-Ala-Ala-Pro-Phe-4-nitroanilide as substrate by absorbance method
[5] = Inhibition of Chlamydia trachomatis Mip using N-succinyl-Ala-Ala-Pro-Phe-4-nitroanilide as substrate by absorbance method
[6] = system: Chlamydia trachomatis; test: Antibacterial activity against Chlamydia trachomatis infected in human HeLa cells at 5 uM assessed as reduction in progeny infection administered immediately followed by bacterial infection by phalloidin dye based Alexa Fluor immunofluorescence microscopy; assay type: functional; set-up: scale not given: the % may be the effect or the level left
[7] = system: Chlamydia trachomatis; test: Antibacterial activity against Chlamydia trachomatis infected in human HeLa cells at 5 uM assessed as reduction in progeny infection administered immediately followed by bacterial infection by Western blot analysis; assay type: functional; set-up: scale not given: the % may be the effect or the level left
[8] = system: HCT-116; test: Antiproliferative activity against human HCT116 cells incubated for 24 hrs by cell count reagent SF based assay; assay type: functional; settings: HCT-116, 24 h
[9] = target: Peptidyl-prolyl cis-trans isomerase FKBP1A (Homo sapiens, UniProt P62942); test: Inhibition of human FKBP12 assessed as reduction in PPIase activity using succinyl-Ala-Leu-Pro-Phe-4-nitroanilide as substrate incubated for 4 mins by absorbance method
[10] = clinical; settings: human, in vivo, po, 30 mg/m2

Chain of Peptidyl-prolyl cis-trans isomerase FKBP1A (P62942 whole entry): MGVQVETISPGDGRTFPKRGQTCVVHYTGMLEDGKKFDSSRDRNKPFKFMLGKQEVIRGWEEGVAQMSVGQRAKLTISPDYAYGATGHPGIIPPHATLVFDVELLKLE
Chain of Outer membrane protein MIP (Q70YI1 21-233 limits assumed): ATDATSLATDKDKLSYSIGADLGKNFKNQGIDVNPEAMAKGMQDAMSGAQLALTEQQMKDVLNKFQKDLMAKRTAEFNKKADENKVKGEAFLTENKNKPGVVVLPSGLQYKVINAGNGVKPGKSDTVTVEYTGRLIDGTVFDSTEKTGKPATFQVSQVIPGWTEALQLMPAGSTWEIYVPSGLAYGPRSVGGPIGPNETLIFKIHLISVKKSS

Structure (SMILES) | IC50 [1] [µM] | IC50 [4] [nM] | IC50 [5] [nM] | IC50 [9] [nM] | also measured
C[C@@H]1CC([C@H](O)CC2CC(=O)N(CC(=O)N(C)C(C)(C)C)C(=O)C2)C(=O)[C@@H](C)C1 (stereo partly specified) | 31.7 | – | – | – | –
COc1cc(CCCOC(=O)C2CCCCN2S(=O)(=O)Cc2ccc([N+](=O)[O-])cc2)cc(OC)c1OC (stereo unspecified) | – | 95.6 | 64.6 | – | Activity [2]: 50%; Activity [3]: 50%; Activity [6]: 50%; Activity [7]: 50%
S=C(SC(=S)C1CCCCC1)C1CCCCC1 | – | – | – | – | EC50 [8]: 10 µM
COc1cc(CCCOC(=O)C2CCCCN2S(=O)(=O)Cc2cccc([N+](=O)[O-])c2)cc(OC)c1OC (stereo unspecified) | – | 2790 | 241 | – | –
CCC12CC3CC(C1)C(NC(=O)CN1C(=O)CC(C[C@@H](O)C4C[C@@H](C)C[C@H](C)C4=O)CC1=O)C(C3)C2 (stereo partly specified) | 5.6 | – | – | 190 | –
C[C@@H]1CC([C@H](O)CC2CC(=O)N(CC(=O)NC3C4CC5(C)CC3CC(C)(C4)C5)C(=O)C2)C(=O)[C@@H](C)C1 (stereo partly specified) | 1.7 | – | – | 180 | –
C[C@@H]1CC([C@H](O)CC2CC(=O)N(CC(=O)NC3C4CC5(C)CC(O)(C4)CC3(C)C5)C(=O)C2)C(=O)[C@@H](C)C1 (stereo partly specified) | 4.9 | – | – | 220 | –
C[C@@H]1CC([C@H](O)CC2CC(=O)N(CC(=O)NC3C4CC5CC3CC(O)(C5)C4)C(=O)C2)C(=O)[C@@H](C)C1 (stereo partly specified) | 21.8 | – | – | 1200 | –
CO[C@H]1C[C@@H]2CC[C@@H](C)[C@@](O)(O2)C(=O)C(=O)N2CCCC[C@H]2C(=O)O[C@H]([C@H](C)C[C@@H]2CC[C@@H](O)[C@H](OC)C2)CC(=O)[C@H](C)/C=C(\C)[C@@H](O)[C@@H](OC)C(=O)[C@H](C)C[C@H](C)/C=C/C=C/C=C/1C [SIROLIMUS] | – | 15.8 | 7.9 | – | –
CC1=C(/C=C/C(C)=C/C=C/C(C)=C/C(=O)O)C(C)(C)CCC1 [TRETINOIN] | – | – | – | – | half-life at 672 h [10]: 45 min
